We go through 19 molecules from publication PMC8637366 (Slas Discovery, 2021).

One assay concerns the target recombinant human AChE (Homo sapiens, UniProt P22303). Kind of assay: biochemical. Particulars: for Emax: read-out: AChE, % Efficacy. The class given is biochemical.
The target of assay [1] is T1, Recombinant human BChE (Homo sapiens, UniProt P06276). Kind of assay: biochemical. Particulars: for Emax: read-out: BChE, % Efficacy.
The target in assay [2] is T1, Recombinant human BChE. It counts as biochemical.

Structures can show the parent of a compound that is named as a salt. Where two headings read alike, the source gives them in different places.

recombinant human AChE, sequence (P22303 32-614): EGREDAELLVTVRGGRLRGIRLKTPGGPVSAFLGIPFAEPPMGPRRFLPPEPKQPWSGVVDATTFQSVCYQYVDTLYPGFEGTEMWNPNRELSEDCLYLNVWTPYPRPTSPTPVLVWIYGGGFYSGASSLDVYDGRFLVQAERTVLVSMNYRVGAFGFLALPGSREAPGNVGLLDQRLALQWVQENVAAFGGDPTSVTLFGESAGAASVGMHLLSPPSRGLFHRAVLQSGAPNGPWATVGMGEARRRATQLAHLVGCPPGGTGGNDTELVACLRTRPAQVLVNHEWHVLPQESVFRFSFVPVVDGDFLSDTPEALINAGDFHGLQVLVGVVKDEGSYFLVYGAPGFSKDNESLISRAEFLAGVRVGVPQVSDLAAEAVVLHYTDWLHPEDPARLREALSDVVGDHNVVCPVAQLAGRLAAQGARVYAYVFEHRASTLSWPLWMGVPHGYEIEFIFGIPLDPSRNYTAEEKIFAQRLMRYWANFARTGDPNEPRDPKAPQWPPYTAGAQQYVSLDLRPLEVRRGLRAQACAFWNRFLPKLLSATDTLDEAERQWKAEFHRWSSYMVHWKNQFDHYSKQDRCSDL
T1 sequence (P06276 29-602): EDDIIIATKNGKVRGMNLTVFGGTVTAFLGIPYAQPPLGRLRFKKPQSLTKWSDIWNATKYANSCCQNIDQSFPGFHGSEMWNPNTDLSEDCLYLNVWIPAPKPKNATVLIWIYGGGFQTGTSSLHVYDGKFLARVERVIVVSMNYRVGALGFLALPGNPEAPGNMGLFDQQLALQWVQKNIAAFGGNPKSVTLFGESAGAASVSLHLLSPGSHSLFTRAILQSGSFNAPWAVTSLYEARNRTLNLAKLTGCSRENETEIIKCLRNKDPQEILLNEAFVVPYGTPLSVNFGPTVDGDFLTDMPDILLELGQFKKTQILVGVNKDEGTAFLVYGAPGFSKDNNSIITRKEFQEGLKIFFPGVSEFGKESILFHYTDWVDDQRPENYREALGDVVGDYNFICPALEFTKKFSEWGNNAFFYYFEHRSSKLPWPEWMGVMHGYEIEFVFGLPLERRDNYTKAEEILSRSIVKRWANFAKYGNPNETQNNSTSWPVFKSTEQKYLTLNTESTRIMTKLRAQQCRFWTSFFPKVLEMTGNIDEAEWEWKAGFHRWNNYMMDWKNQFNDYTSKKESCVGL

By IC50 is commonly meant the concentration needed to halve the response being measured. Turning to `CN1CCc2cc(Cl)c(O)cc2[C@@H](c2cccc3c2OCC3)C1` [NNC 756], at recombinant human AChE, the “AChE, IC50” value is “Inactive”. For the same molecule, the “BChE, % Efficacy” value on Recombinant human BChE [1] was 0.84 ± 0.11 (–98.2 ± 6.31) %. On Recombinant human BChE [1] (read-out: BChE, IC50), the IC50 turned out to be 840 nM.
As for `COc1ccc(CN(C(=O)[C@@H](N)Cc2c(C)cc(C(N)=O)cc2C)[C@@H](C)c2ncc(-c3ccccc3)[nH]2)cc1C(=O)O` [Eluxadoline], the “AChE, IC50” value at recombinant human AChE is “Inactive”. On Recombinant human BChE [1] (BChE, IC50), the IC50 was found to be 340 nM. In addition, the Emax at Recombinant human BChE [1] was -100%.
Taken in the same sequence, the figures for `CCN(CCCc1ccccc1)CCCc1ccccc1` [Alverine citrate] were “Inactive”, 380 nM and -95%.
In the case of `CCCCCCCCCCC[C@@H](C[C@@H]1OC(=O)[C@H]1CCCCCC)OC(=O)[C@H](CC(C)C)NC=O` [Orlistat], the Emax at recombinant human AChE was -80.5%; on Recombinant human BChE [1], -92.9%. Also, the IC50 at Recombinant human BChE [1] (BChE, IC50) amounted to 120 nM.
Taken in the same sequence, the figures for `CN(C)C(=O)Oc1cccc([N+](C)(C)C)c1` [Neostigmine bromide] were -94.6%, -102% and 900 nM.
In the case of `CCN(CC)C(C)CN1c2ccccc2Sc2ccccc21` (stereo not shown) [ethopropazine hydrochloride, Ethopropazine hydrochloride], at Recombinant human BChE [1] (BChE, IC50), the IC50 was 1700 ± 530 nM.
In the case of `O=c1nc(-c2ccccn2)sc2ccccc12` [BTZO 1], the “AChE, IC50” value on recombinant human AChE is “Inactive”. For the same molecule, the “BChE, % Efficacy” value at Recombinant human BChE [1] is listed as 0.49 ± 0.25 (–94.6 ± 2.01) %. In addition, the IC50 at Recombinant human BChE [1] (read-out: BChE, IC50) came out at 490 nM.
Regarding `Cc1c[nH]c2ncnc(N3CCC(CN)(C(=O)Nc4cccc(OC(=O)N(C)C)c4)CC3)c12` [LX-7101], the IC50 at recombinant human AChE worked out at 7710 nM; on Recombinant human BChE [1] (BChE, IC50), 220 nM. Besides, the Emax was -92.4% on recombinant human AChE and -96.6% on Recombinant human BChE [1].
In the case of `COc1cc(O)ccc1OCCNCC(O)COc1cccc2[nH]c3ccccc3c12` (stereo not shown) [4-hydroxyphenyl carvedilol], the “AChE, IC50” value at recombinant human AChE is “Inactive”. The “BChE, % Efficacy” value on Recombinant human BChE [1] is reported as 0.97 ± 0.11 (–100 ± 2.04) %. Also, the IC50 on Recombinant human BChE [1] (read-out: BChE, IC50) was found to be 970 nM.
With `Nc1c2ccccc2nc2ccccc12` [9-Aminoacridine monohydrochloride monohydrate], the IC50 on Recombinant human BChE [1] (BChE, IC50) was 160 nM. The Emax on Recombinant human BChE [1] was -101%.
On to `CCCCn1c(-c2ccccc2)nc(-c2ccccc2)c1CN(Cc1ccc2c(c1)OCO2)Cc1ccc2c(c1)OCO2` [NDT 9513727, N,N-Bis(1,3-benzodioxol-5-ylmethyl)-1-butyl-2,4-diphenyl-1H-imidazole-5-methanamine], for which, at recombinant human AChE, the AChE inhibition entry was “did not show AChE inhibition” and the “AChE, IC50” value is “Inactive”. Besides, the IC50 at Recombinant human BChE [1] (BChE, IC50) came out at 210 nM. The Emax at Recombinant human BChE [1] is -101%.
Take `Clc1ccc(Nc2nc3ccccc3c3nc(C4CCCCC4)[nH]c23)cc1Cl` [LUF6000]: the “inhibition against BChE in the fluorescent assay” value on Recombinant human BChE [2] is on record as “did not show inhibition”.
Consider `CNC(=O)Oc1ccc2c(c1)[C@]1(C)CCN(C)[C@@H]1N2C` [Physostigmine], for which the Emax on recombinant human AChE is -103%; on Recombinant human BChE [1], -98.4%.
On to `N#CC(c1ccnc(OCc2ccc(CN3CCOCC3)cc2)n1)c1nc2ccccc2s1` (stereo not shown) [Bentamapimod], for which, at recombinant human AChE, the AChE inhibition entry was “did not show AChE inhibition” and the “AChE, IC50” value is “Inactive”. At Recombinant human BChE [1] (BChE, IC50), the IC50 is 330 nM. For the same molecule, on Recombinant human BChE [1], the Emax is -98.8%.
Take `CN(C)C(=O)Oc1cc(OC(=O)N(C)C)cc(C(O)CNC(C)(C)C)c1` (stereo not shown) [Bambuterol hydrochloride]: on recombinant human AChE, the “AChE, IC50” value is on record as “Inactive”. The IC50 at Recombinant human BChE [1] (BChE, IC50) came to 30 nM. Besides, the Emax at Recombinant human BChE [1] is -91.4%.
Regarding `O=C(CN1CCN(Cc2ccc3c(c2)OCO3)CC1)N1c2ccccc2Sc2ccccc21` [Fenoverine], on recombinant human AChE, the AChE inhibition result was “did not show AChE inhibition” and the “AChE, IC50” value is reported as “Inactive”. For the same molecule, the IC50 at Recombinant human BChE [1] (BChE, IC50) was 90 nM. For the same molecule, at Recombinant human BChE [1], the Emax is -97.3%.
For `CC(C)OC(=O)C1=CN(C(=O)c2ccc(F)c(F)c2)CC(C)(C)c2c1[nH]c1ccccc21` [Turofexorate isopropyl], at recombinant human AChE, the AChE inhibition entry was “did not show AChE inhibition” and the “AChE, IC50” value is given as “Inactive”. The IC50 at Recombinant human BChE [1] (BChE, IC50) turned out to be 290 nM. Besides, the Emax at Recombinant human BChE [1] is -98.5%.
As to Diethylumbelliferyl phosphate, on recombinant human AChE, the “AChE, % Efficacy” value is reported as 0.42 ± 0.03 (–98.6 ± 5.66) %.
Turning to `Cc1c(Cl)c(=O)oc2cc(OP(=O)(OCCCl)OCCCl)ccc12` [Haloxon], the IC50 on recombinant human AChE came to 320 nM; at Recombinant human BChE [1] (BChE, IC50), 30 nM. Also, the Emax is -101% at recombinant human AChE and -91.2% on Recombinant human BChE [1].
